From BindingDB's records for doi:10.1074/jbc.M113.533562 (Case Western Reserve University, 2014) come the findings set out here.

One experiment deals with Beta-lactamase OXA-1 (Escherichia coli, UniProt P13661). Description: Kinetic Assay. The note with it: pH 7.2. Here is the method:
(§1) Steady-state kinetics were performed on an Agilent 8453 diode array spectrophotometer (Palo Alto, CA) in 50 mM sodium phosphate buffer (pH 7.2) supplemented with 20 mM NaHCO3.

The target in a further experiment is Oxa40 (Acinetobacter baumannii, UniProt Q8RLA6). The experiment in a line: Kinetic Assay. The note with it: pH 7.2. Here is the method:
as §1

Chain of Oxa40 (Q8RLA6 whole entry): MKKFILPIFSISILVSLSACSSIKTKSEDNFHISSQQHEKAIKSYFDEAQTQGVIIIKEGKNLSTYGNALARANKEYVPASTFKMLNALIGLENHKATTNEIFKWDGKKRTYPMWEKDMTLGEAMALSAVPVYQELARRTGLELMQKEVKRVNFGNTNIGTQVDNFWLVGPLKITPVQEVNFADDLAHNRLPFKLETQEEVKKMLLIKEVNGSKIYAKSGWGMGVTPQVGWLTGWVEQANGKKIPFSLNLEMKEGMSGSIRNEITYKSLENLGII
Chain of Beta-lactamase OXA-1 (P13661 whole entry): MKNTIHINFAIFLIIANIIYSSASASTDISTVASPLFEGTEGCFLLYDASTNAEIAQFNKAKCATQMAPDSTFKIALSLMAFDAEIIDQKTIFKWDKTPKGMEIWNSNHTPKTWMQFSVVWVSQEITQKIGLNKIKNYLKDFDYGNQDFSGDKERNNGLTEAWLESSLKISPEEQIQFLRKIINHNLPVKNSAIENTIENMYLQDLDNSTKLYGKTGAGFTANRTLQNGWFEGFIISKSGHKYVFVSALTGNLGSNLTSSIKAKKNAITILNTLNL

`O=C(O)C1=CS[C@@H]2/C(=C\c3cc4n(n3)CSC4)C(=O)N12` [Penem 1]: the figures for the 50% inhibitory concentration (IC50) on Beta-lactamase OXA-1 and against Oxa40 were 30 nM and 150 nM, respectively. Further, the Ki (as a rule, a measure of affinity in units of concentration, obtained from inhibition or displacement) at Beta-lactamase OXA-1 came out at 50 nM; at Oxa40, 30 nM.

`O=C(O)C1=CS[C@@H]2/C(=C\c3cn4c(n3)COCC4)C(=O)N12` [Penem 3]: at Beta-lactamase OXA-1, the IC50 (in general, the concentration that gives 50% inhibition) amounted to 60 nM and the affinity corresponds to a Ki of 380 nM. At Oxa40, this molecule had a half-maximal inhibitory concentration (IC50) of 160 nM and a Ki of 150 nM.
